According to US12252524B2, “GIP/GLP1 co-agonist compounds” (Eli Lilly and Company, priority 2018, dated 2025):
Numbered stars: 1 amine (or outer) side, 2 acyl side, 3 side chain; on linkers, the order of the positions; unused ones are H or OH. Square brackets hold non-standard residues; d marks the D form. Side chains are listed from the residue outwards. Peptide text beside a SMILES is read from it. * marks the point of attachment. C20 diacid = O=C(O)CCCCCCCCCCCCCCCCCCC(=O)*; γGlu = O=C(O)[C@H](CCC(=O)[*:2])N[*:1]; αMeL = CC(C)C[C@](C)(N)C(=O)O; αMeK = C[C@](N)(CCCCN)C(=O)O; AEEA = NCCOCCOCC(=O)O; Aib = CC(C)(N)C(=O)O

How the values were obtained:
[1] = target: T1, gastric inhibitory peptide receptor (GIPR) (Homo sapiens, UniProt P48546); assay: cAMP pharmacological functional assay in presence of casein, hGIPR; format: cell-based; details: HEK293 cells expressing hGIPR, 0.1% Casein, geometric mean; read-out: hGIPR cAMP Rel EC50 nM (SEM, n)
T1 sequence (P48546 22-466): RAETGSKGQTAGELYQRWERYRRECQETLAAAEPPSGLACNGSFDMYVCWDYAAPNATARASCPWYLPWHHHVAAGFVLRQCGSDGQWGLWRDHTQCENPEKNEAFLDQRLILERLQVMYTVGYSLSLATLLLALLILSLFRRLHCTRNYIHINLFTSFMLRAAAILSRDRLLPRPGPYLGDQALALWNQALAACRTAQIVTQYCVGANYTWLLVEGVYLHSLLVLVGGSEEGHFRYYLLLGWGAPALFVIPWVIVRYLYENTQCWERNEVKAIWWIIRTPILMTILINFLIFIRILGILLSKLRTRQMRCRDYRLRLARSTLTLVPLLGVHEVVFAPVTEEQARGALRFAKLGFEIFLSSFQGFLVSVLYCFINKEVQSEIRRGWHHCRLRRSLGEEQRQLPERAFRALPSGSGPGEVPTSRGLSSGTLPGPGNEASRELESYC

[2] = target: T2, human Gcg receptor (Homo sapiens, UniProt P47871); assay: [125I]-Glucagon binding (SPA), human Gcg receptor; details: read-out: hGLcgR Ki, nM (SEM, n)
T2 construct: expressed in transfected cells; crude membranes
How it was run: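 Scintillation counts are taken after membranes and WGA beads incubate and settle for 12 hours at room temperature. Buffer is 25 mM HEPES, pH 7.4, with CaCl2, MgCl2, bacitracin and Tween-20. Ki values, from four-parameter IC50 fits, are geometric means over independent days.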

[3] = target: human GLP-1 receptor (GLP-1R) (Homo sapiens, UniProt P43220); assay: cAMP pharmacological functional assay in presence of casein, hGLP-1R; format: cell-based; details: HEK293 cells expressing hGLP-1R, 0.1% Casein, geometric mean; read-out: hGLP1R cAMP Rel EC50 nM (SEM, n)
[4] = target: T3, human GIP receptor (Homo sapiens, UniProt P48546); assay: [125I]-GIP binding (SPA), human GIP receptor; details: read-out: hGIPR Ki, nM (SEM, n)
T3 construct: expressed in transfected cells; crude membranes
T3 sequence (P48546 22-466): T1 sequence (P48546 22-466)

[5] = target: human GLP-1R (Homo sapiens, UniProt P43220); assay: [125I]-GLP-1 binding (SPA), human GLP-1 receptor; set-up: expressed in transfected cells; crude membranes; details: read-out: hGLP1R Ki, (nM) (SEM, n)
How it was run: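 Frozen cell pellets are lysed on ice in hypotonic Tris buffer, pH 7.5, homogenized, and centrifuged to a membrane pellet resuspended at about 1 to 3 mg/mL. Binding is then measured in HEPES-based buffer at pH 7.4, and curves are fitted to give IC50 and Ki.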

Chain of human GLP-1R (P43220 24-463): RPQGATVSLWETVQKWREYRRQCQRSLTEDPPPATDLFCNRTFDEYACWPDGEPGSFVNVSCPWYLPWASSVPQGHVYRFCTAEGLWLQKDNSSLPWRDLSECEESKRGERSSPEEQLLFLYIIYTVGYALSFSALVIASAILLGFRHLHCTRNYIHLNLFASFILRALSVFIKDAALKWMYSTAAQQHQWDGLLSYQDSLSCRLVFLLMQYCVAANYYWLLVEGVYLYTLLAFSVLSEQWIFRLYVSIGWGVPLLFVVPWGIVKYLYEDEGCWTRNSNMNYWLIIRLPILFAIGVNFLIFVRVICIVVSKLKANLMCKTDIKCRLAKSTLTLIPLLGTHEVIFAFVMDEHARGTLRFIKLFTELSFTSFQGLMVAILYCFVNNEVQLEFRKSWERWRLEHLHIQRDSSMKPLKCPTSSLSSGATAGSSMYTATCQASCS
Chain of human GLP-1 receptor (GLP-1R) (P43220 24-463): as above
T2 sequence (P47871 26-477): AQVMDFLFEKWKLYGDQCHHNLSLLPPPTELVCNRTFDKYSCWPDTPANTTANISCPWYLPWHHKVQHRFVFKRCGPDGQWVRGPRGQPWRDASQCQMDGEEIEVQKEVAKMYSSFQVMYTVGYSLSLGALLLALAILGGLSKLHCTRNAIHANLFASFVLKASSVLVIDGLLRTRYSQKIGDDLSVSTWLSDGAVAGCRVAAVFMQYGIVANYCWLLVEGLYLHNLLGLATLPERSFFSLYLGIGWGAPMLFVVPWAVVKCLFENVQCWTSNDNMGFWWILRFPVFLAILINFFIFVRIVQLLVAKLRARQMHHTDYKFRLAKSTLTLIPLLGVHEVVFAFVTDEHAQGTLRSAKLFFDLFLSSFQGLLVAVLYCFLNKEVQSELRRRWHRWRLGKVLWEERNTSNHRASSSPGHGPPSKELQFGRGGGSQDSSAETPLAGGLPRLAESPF

Compound	EC50 [1]	Ki [2]	EC50 [3]	Ki [4]	Ki [5]
CC[C@H](C)[C@H](NC(=O)[C@H](CC(C)C)NC(=O)[C@H](Cc1ccc(O)cc1)NC(=O)[C@H](CCC(=O)O)NC(=O)[C@@H](NC(=O)[C@H](Cc1ccccc1)NC(=O)[C@H](C)NC(=O)C(C)(C)NC(=O)[C@H](CCC(N)=O)NC(=O)[C@H](C)NC(=O)[C@H](CCCCNC(=O)COCCOCCNC(=O)COCCOCCNC(=O)CC[C@H](NC(=O)CCCCCCCCCCCCCCCCCCC(=O)O)C(=O)O)NC(=O)[C@H](CCCCN)NC(=O)[C@H](CC(=O)O)NC(=O)[C@H](CC(C)C)NC(=O)[C@](C)(CC(C)C)NC(=O)[C@@H](NC(=O)[C@H](CO)NC(=O)[C@H](Cc1ccc(O)cc1)NC(=O)[C@H](CC(=O)O)NC(=O)[C@H](CO)NC(=O)[C@@H](NC(=O)[C@H](Cc1ccccc1)NC(=O)[C@@H](NC(=O)CNC(=O)[C@H](CCC(=O)O)NC(=O)C(C)(C)NC(=O)[C@@H](N)Cc1ccc(O)cc1)[C@@H](C)O)[C@@H](C)O)[C@@H](C)CC)[C@@H](C)CC)C(=O)N[C@@H](CCC(=O)O)C(=O)NCC(=O)NCC(=O)N1CCC[C@H]1C(=O)N[C@@H](CO)C(=O)N[C@@H](CO)C(=O)NCC(=O)N[C@@H](C)C(=O)N1CCC[C@H]1C(=O)N1CCC[C@H]1C(=O)N1CCC[C@H]1C(=O)N[C@@H](CO)C(N)=O [Example 20]	0.0556 nM	228 nM	0.117 nM	0.0849 nM	3.3 nM
CC[C@H](C)[C@H](NC(=O)[C@H](Cc1ccccc1)NC(=O)[C@H](C)NC(=O)[C@](C)(CCCCN)NC(=O)[C@H](CCC(N)=O)NC(=O)[C@H](C)NC(=O)[C@H](CCCCNC(=O)COCCOCCNC(=O)COCCOCCNC(=O)CC[C@H](NC(=O)CCCCCCCCCCCCCCCCCCC(=O)O)C(=O)O)NC(=O)[C@H](CCC(=O)O)NC(=O)[C@H](CC(=O)O)NC(=O)[C@H](CC(C)C)NC(=O)[C@](C)(CC(C)C)NC(=O)[C@@H](NC(=O)[C@H](CO)NC(=O)[C@H](Cc1ccc(O)cc1)NC(=O)[C@H](CC(=O)O)NC(=O)[C@H](CO)NC(=O)[C@@H](NC(=O)[C@H](Cc1ccccc1)NC(=O)[C@@H](NC(=O)CNC(=O)[C@H](CCC(=O)O)NC(=O)C(C)(C)NC(=O)[C@@H](N)Cc1ccc(O)cc1)[C@@H](C)O)[C@@H](C)O)[C@@H](C)CC)C(=O)N[C@@H](CCC(=O)O)C(=O)N[C@@H](Cc1ccc(O)cc1)C(=O)N[C@@H](CC(C)C)C(=O)N[C@@H](CC(C)C)C(=O)N[C@@H](CCC(=O)O)C(=O)NCC(=O)NCC(=O)N1CCC[C@H]1C(=O)N[C@@H](CO)C(=O)N[C@@H](CO)C(=O)NCC(=O)N[C@@H](C)C(=O)N1CCC[C@H]1C(=O)N1CCC[C@H]1C(=O)N1CCC[C@H]1C(=O)N[C@@H](CO)C(N)=O [Example 21] (H-Y[Aib]EGTFTSDYSI[αMeL]LDEK([AEEA-AEEA-γGlu-C20 diacid])AQ[αMeK]AFIEYLLEGGPSSGAPPPS-NH2)	0.0748 nM	149 nM	0.16 nM	0.529 nM	14.5 nM
CC[C@H](C)[C@H](NC(=O)[C@H](Cc1ccccc1)NC(=O)[C@H](C)NC(=O)[C@](C)(CCCCN)NC(=O)[C@H](CCC(N)=O)NC(=O)[C@H](C)NC(=O)[C@H](CCCCNC(=O)COCCOCCNC(=O)COCCOCCNC(=O)CC[C@H](NC(=O)CCCCCCCCCCCCCCCCCCC(=O)O)C(=O)O)NC(=O)[C@H](CCC(=O)O)NC(=O)[C@H](CC(=O)O)NC(=O)[C@H](CC(C)C)NC(=O)[C@](C)(CC(C)C)NC(=O)[C@@H](NC(=O)[C@H](CO)NC(=O)[C@H](Cc1ccc(O)cc1)NC(=O)[C@H](CC(=O)O)NC(=O)[C@H](CO)NC(=O)[C@@H](NC(=O)[C@H](Cc1ccccc1)NC(=O)[C@@H](NC(=O)CNC(=O)[C@H](CCC(=O)O)NC(=O)C(C)(C)NC(=O)[C@@H](N)Cc1ccc(O)cc1)[C@@H](C)O)[C@@H](C)O)[C@@H](C)CC)C(=O)N[C@@H](CCC(=O)O)C(=O)N[C@@H](Cc1ccc(O)cc1)C(=O)N[C@@H](CC(C)C)C(=O)N[C@@H](CC(C)C)C(=O)N[C@@H](CCC(=O)O)C(=O)NC(C)(C)C(=O)NCC(=O)N1CCC[C@H]1C(=O)N[C@@H](CO)C(=O)N[C@@H](CO)C(=O)NCC(=O)N[C@@H](C)C(=O)N1CCC[C@H]1C(=O)N1CCC[C@H]1C(=O)N1CCC[C@H]1C(=O)N[C@@H](CO)C(N)=O [Example 22] (H-Y[Aib]EGTFTSDYSI[αMeL]LDEK([AEEA-AEEA-γGlu-C20 diacid])AQ[αMeK]AFIEYLLE[Aib]GPSSGAPPPS-NH2; N-terminus assumed)	0.0842 nM	53.4 nM	0.206 nM	0.624 nM	23.1 nM
CC[C@H](C)[C@H](NC(=O)[C@H](CCCCN)NC(=O)[C@H](CC(=O)O)NC(=O)[C@H](CC(C)C)NC(=O)[C@H](CC(C)C)NC(=O)[C@@H](NC(=O)[C@H](CO)NC(=O)[C@H](CCCCNC(=O)COCCOCCNC(=O)COCCOCCNC(=O)CC[C@H](NC(=O)CCCCCCCCCCCCCCCCCCC(=O)O)C(=O)O)NC(=O)[C@H](CC(=O)O)NC(=O)[C@H](CO)NC(=O)[C@@H](NC(=O)[C@H](Cc1ccccc1)NC(=O)[C@@H](NC(=O)CNC(=O)[C@H](CCC(=O)O)NC(=O)C(C)(C)NC(=O)[C@@H](N)Cc1ccc(O)cc1)[C@@H](C)O)[C@@H](C)O)[C@@H](C)CC)C(=O)N[C@@H](C)C(=O)N[C@@H](CCC(N)=O)C(=O)NC(C)(C)C(=O)N[C@@H](C)C(=O)N[C@@H](Cc1ccccc1)C(=O)N[C@H](C(=O)N[C@@H](CCC(=O)O)C(=O)N[C@@H](Cc1ccc(O)cc1)C(=O)N[C@@H](CC(C)C)C(=O)N[C@H](C(=O)N[C@@H](CCC(=O)O)C(=O)NCC(=O)NCC(=O)N1CCC[C@H]1C(=O)N[C@@H](CO)C(=O)N[C@@H](CO)C(=O)NCC(=O)N[C@@H](C)C(=O)N1CCC[C@H]1C(=O)N1CCC[C@H]1C(=O)N1CCC[C@H]1C(=O)N[C@@H](CO)C(N)=O)[C@@H](C)CC)[C@@H](C)CC [Example 23] (H-Y[Aib]EGTFTSDK([AEEA-AEEA-γGlu-C20 diacid])SILLDKIAQ[Aib]AFIEYLIEGGPSSGAPPPS-NH2)	0.204 nM	> 1010 nM	0.19 nM	0.258 nM	6.32 nM
CC[C@H](C)[C@H](NC(=O)[C@H](CCCCN)NC(=O)[C@H](CC(=O)O)NC(=O)[C@H](CC(C)C)NC(=O)[C@H](CC(C)C)NC(=O)[C@@H](NC(=O)[C@H](CCCCNC(=O)COCCOCCNC(=O)COCCOCCNC(=O)CC[C@H](NC(=O)CCCCCCCCCCCCCCCCCCC(=O)O)C(=O)O)NC(=O)[C@H](Cc1ccc(O)cc1)NC(=O)[C@H](CC(=O)O)NC(=O)[C@H](CO)NC(=O)[C@@H](NC(=O)[C@H](Cc1ccccc1)NC(=O)[C@@H](NC(=O)CNC(=O)[C@H](CCC(=O)O)NC(=O)C(C)(C)NC(=O)[C@@H](N)Cc1ccc(O)cc1)[C@@H](C)O)[C@@H](C)O)[C@@H](C)CC)C(=O)N[C@@H](C)C(=O)N[C@@H](CCC(N)=O)C(=O)NC(C)(C)C(=O)N[C@@H](C)C(=O)N[C@@H](Cc1ccccc1)C(=O)N[C@H](C(=O)N[C@@H](CCC(=O)O)C(=O)N[C@@H](Cc1ccc(O)cc1)C(=O)N[C@@H](CC(C)C)C(=O)N[C@H](C(=O)N[C@@H](CCC(=O)O)C(=O)NCC(=O)NCC(=O)N1CCC[C@H]1C(=O)N[C@@H](CO)C(=O)N[C@@H](CO)C(=O)NCC(=O)N[C@@H](C)C(=O)N1CCC[C@H]1C(=O)N1CCC[C@H]1C(=O)N1CCC[C@H]1C(=O)N[C@@H](CO)C(N)=O)[C@@H](C)CC)[C@@H](C)CC [Example 24] (H-Y[Aib]EGTFTSDYK([AEEA-AEEA-γGlu-C20 diacid])ILLDKIAQ[Aib]AFIEYLIEGGPSSGAPPPS-NH2)	0.762 nM	49.8 nM	13 nM	0.232 nM	5.04 nM
